Series [1] relates to BoNT/A. The following applies: mouse, in vivo; cited from earlier work.
For series [2], the system named is HEK293 cells.
In series [3] the test system is MMPs. The series is classed as biochemical.

For the molecule `O=C(/C=C/c1ccc(Cl)cc1Cl)NO` [Compound 7, 2,4-dichlorocinnamic hydroxamic acid], in series [1], the rescued mice is on record as 16% and the small molecule-associated toxicity entry is on record as “no small molecule-associated toxicity”. For `CS(=O)(=O)SCCCCCN(O)C(=O)/C=C/c1ccc(Cl)cc1Cl` [Compound 31, (E)-S-(5-(3-(2,4-dichlorophenyl)-N-hydroxyacrylamido)pentyl) methanesulfonothioate], in series [2], the IC50 result is on record as “did not inhibit cells to the extent that an IC50 value could be calculated”. Regarding `CS(=O)(=O)SCCCCCCN(O)C(=O)/C=C/c1ccc(Cl)cc1Cl` [Compound 32, (E)-S-(6-(3-(2,4-dichlorophenyl)-N-hydroxyacrylamido)hexyl) methanesulfonothioate], the covalent inhibition result in series [3] is listed as “no covalent inhibition was observed”. Regarding `CS(=O)(=O)SCCCNC(=O)CC(CC(=O)NO)c1ccc(Cl)cc1Cl` (stereo not drawn) [Compound 53, S-(3-(3-(2,4-dichlorophenyl)-5-(hydroxyamino)-5-oxopentanamido)propyl) methanesulfonothioate], in series [3], the MMP inhibition entry is listed as “inhibits MMPs significantly less than 32” and the covalent inhibition entry is recorded as “no covalent inhibition was observed”. Besides, the cellular toxicity result in series [2] was “did not exhibit cellular toxicity”.

As for `CCCCCNC(=O)CC(CC(=O)NO)c1ccc(Cl)cc1Cl` (centres unmarked) [Compound 59, 3-(2,4-dichlorophenyl)-N^1-hydroxy-N^5-pentylpentanediamide], the cellular toxicity result in series [2] is recorded as “did not exhibit cellular toxicity”.

The values above are taken from publication PMC7581224 (Journal of medicinal chemistry, 2020).
